In PubChem BioAssay (NCI) one finds GI50 and TGI data, which are given here for nine compounds.

Among the test systems are K-562 leukemia; NCI-H460 lung; ACHN renal; KM12 colon; IGROV1 ovarian; HCC-2998 colon; SF-295 CNS; SF-539 CNS.
Holding throughout (assay): DTP human tumour cell line panel, 48 h

Where “and” joins values, the source holds several entries; their conditions need not be identical. Equal entries are not always repeated.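 Growth conditions: 96-well plates. Treatment: test compound, 48 hours, 5 concentrations. Analysis: linear interpolation between bracketing concentrations; unreached endpoints set to highest concentration. GI50 = concentration required for 50% inhibition of growth. The concentration for full growth arrest is given as TGI.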

Take `CCOC(=O)C(Cc1ccc(OC)cc1)C(=O)OCC`: the GI50 (usually the concentration that inhibits growth by half) in the assay with K-562 leukemia is 1.83 µM; in the assay with NCI-H460 lung, 4.12 µM; in the assay with ACHN renal it was 7.33 µM; in the assay on KM12 colon it was 3.01 µM; in the assay with IGROV1 ovarian, 3.46 µM; in the assay on HCC-2998 colon, 4.81 µM. Moreover, the GI50 in the assay on SF-295 CNS was 5 µM; in the assay on SF-539 CNS, 2.92 µM. Moreover, the TGI (usually the concentration giving total growth inhibition) in the assay on K-562 leukemia turned out to be 11.8 µM; in the assay on NCI-H460 lung, 15.1 µM; in the assay on ACHN renal, 22.3 µM; in the assay on KM12 colon, 9.85 µM; in the assay with IGROV1 ovarian it was 14.3 µM; with HCC-2998 colon, 12.4 µM. Also, the results for the TGI in the assay on SF-295 CNS and with SF-539 CNS were 20.3 µM and 9.43 µM, respectively.

For the compound `CC(C)CNc1nc(N=[N+]=[N-])nc(NCC(C)C)n1`, the GI50 with K-562 leukemia, in the assay on NCI-H460 lung, in the assay on ACHN renal, in the assay on KM12 colon, in the assay on IGROV1 ovarian and in the assay with HCC-2998 colon was above 10 µM throughout. Also, the GI50 with SF-295 CNS and in the assay with SF-539 CNS was above 10 µM throughout. For the same compound, the TGI in the assay with K-562 leukemia, with NCI-H460 lung, in the assay on ACHN renal, in the assay with KM12 colon, in the assay on IGROV1 ovarian and with HCC-2998 colon was above 10 µM each time. Besides, the TGI with SF-295 CNS and in the assay on SF-539 CNS was above 10 µM each time.

As for `C[C@@H](Oc1cc(-c2cnn(C3CC4(CCCNC4)C3)c2)cnc1N)c1c(Cl)ccc(F)c1Cl` (some centres undefined), the GI50 was 0.265 µM in the assay with K-562 leukemia; 0.826 µM in the assay on NCI-H460 lung; 1.57 µM in the assay on ACHN renal; 0.0485 µM with KM12 colon; 2.99 µM with IGROV1 ovarian; 1.51 µM with HCC-2998 colon. Moreover, the GI50 with SF-295 CNS was 0.247 µM; with SF-539 CNS, 1.59 µM. Moreover, the TGI in the assay with K-562 leukemia came to 1.41 µM; in the assay with NCI-H460 lung, 2.53 µM; with ACHN renal it was 4.49 µM; in the assay with KM12 colon, 1.32 µM; in the assay on IGROV1 ovarian it was 13.6 µM; with HCC-2998 colon, 3.14 µM. For the same compound, the results for the TGI in the assay on SF-295 CNS and in the assay with SF-539 CNS were 2.13 µM and 3.02 µM, respectively.

As for `Brc1ccc(Br)nn1`, the GI50 in the assay on K-562 leukemia was 2.17 µM; in the assay on NCI-H460 lung, 3.04 µM; in the assay on ACHN renal, 1.8 µM; in the assay on KM12 colon, 12 µM; in the assay on IGROV1 ovarian it was 2 µM; in the assay with HCC-2998 colon it was 1.98 µM. For the same compound, the results for the GI50 with SF-295 CNS and in the assay on SF-539 CNS were 5.38 µM and 3.25 µM, respectively. The TGI with K-562 leukemia was 10.3 µM; in the assay on NCI-H460 lung it was above 33.8 µM; in the assay with ACHN renal, 3.26 µM; in the assay on KM12 colon it was 26.1 µM; in the assay on IGROV1 ovarian, 4.92 µM; in the assay with HCC-2998 colon, 4.94 µM. In addition, the figures for the TGI with SF-295 CNS and in the assay with SF-539 CNS were 18.6 µM and 12.2 µM, respectively.

Consider `C=C1C(=O)OC2CC3(C)OC3C3OC3C3=CC(OC3=O)C12` (centres undefined), for which the GI50 in the assay on K-562 leukemia was 2.54 µM; in the assay on NCI-H460 lung, 19.9 µM; in the assay on ACHN renal it was 1.81 µM; with KM12 colon, 18.7 µM; in the assay with IGROV1 ovarian it was 21.2 µM; in the assay on HCC-2998 colon, 17.4 µM. Further, the GI50 is 37.4 µM in the assay with SF-295 CNS and 4.43 µM with SF-539 CNS. Moreover, the TGI in the assay with K-562 leukemia was 6.85 µM; in the assay on NCI-H460 lung, 41.3 µM; in the assay with ACHN renal, 3.35 µM; with KM12 colon, 37.7 µM; in the assay with IGROV1 ovarian, 40.7 µM; in the assay with HCC-2998 colon it was 33.9 µM. In addition, the TGI with SF-295 CNS is above 100 µM; in the assay on SF-539 CNS, 16.7 µM.

With `COc1ccc(C2C3=C(COC3=O)N(CCO)c3cc4c(cc32)OCCO4)cc1OC` (centres undefined), the GI50 in the assay with K-562 leukemia is 1.38 µM; in the assay with NCI-H460 lung it was 1.84 µM; in the assay with ACHN renal, above 50 µM; in the assay with KM12 colon it was 1.35 µM; in the assay with IGROV1 ovarian, 1.91 µM; with HCC-2998 colon it was 1.76 µM. Besides, the values for the GI50 with SF-295 CNS and with SF-539 CNS were 0.922 µM and 1.69 µM, respectively. In addition, the TGI in the assay with K-562 leukemia was above 50 µM; in the assay with NCI-H460 lung, above 18.9 µM; in the assay on ACHN renal it was above 50 µM; in the assay on KM12 colon, above 38.7 µM; in the assay with IGROV1 ovarian, 14.9 µM; in the assay with HCC-2998 colon, 8.67 µM. Further, the concentration for total growth inhibition (TGI) is 12 µM in the assay on SF-295 CNS and above 18 µM in the assay with SF-539 CNS.

Take `O=C1c2ccccc2C(=O)c2c(NC(=O)c3ccc4c5c(ncnc35)-c3ccccc3C4=O)cccc21`: the TGI with K-562 leukemia, in the assay on NCI-H460 lung, with ACHN renal, in the assay on KM12 colon, in the assay with IGROV1 ovarian and in the assay with HCC-2998 colon was above 100 µM each time. Moreover, the TGI in the assay with SF-295 CNS is 64 µM; in the assay with SF-539 CNS it was above 100 µM.

`C[C@@H]1CN2[C@H]3[C@@H]1CC[C@]31CCC(=O)O[C@]1(C)[C@@H]1CC[C@H]3CCC=C3[C@@H]12`: the GI50 in the assay with K-562 leukemia, with NCI-H460 lung, with ACHN renal, with KM12 colon, in the assay with IGROV1 ovarian and in the assay on HCC-2998 colon was above 70 µM each time. For the same compound, the GI50 with SF-295 CNS and in the assay with SF-539 CNS was above 70 µM in each case. In addition, the TGI in the assay on K-562 leukemia, in the assay on NCI-H460 lung, with ACHN renal, with KM12 colon, in the assay on IGROV1 ovarian and with HCC-2998 colon was above 70 µM throughout. For the same compound, the TGI in the assay with SF-295 CNS and with SF-539 CNS was above 70 µM throughout.

In the case of `CC[C@@]1(OC(=O)CN)C(=O)OCc2c1cc1n(c2=O)Cc2cc3c(N)c4c(cc3nc2-1)OCO4`, the GI50 is 0.00254 µM in the assay with K-562 leukemia; below 0.0001 µM in the assay on NCI-H460 lung; below 0.0001 µM in the assay on ACHN renal; 0.0136 µM and 0.0192 µM in the assay on KM12 colon; 0.018 µM with IGROV1 ovarian; 0.0116 µM in the assay on HCC-2998 colon. Moreover, the GI50 in the assay on SF-295 CNS and in the assay on SF-539 CNS was below 0.0001 µM throughout. Further, the TGI was 0.508 µM in the assay with K-562 leukemia; 0.104 µM and 0.0152 µM in the assay on ACHN renal; 0.182 µM and 1.27 µM in the assay on KM12 colon; 0.342 µM in the assay with IGROV1 ovarian; 0.969 µM with HCC-2998 colon; 0.000945 µM in the assay with SF-539 CNS.
